≈ marks a conversion by molar mass, not a printed value. Calls of active or inactive are those of the source. The rule behind the calls is not given here.

Assay [1] relates to Acinetobacter. In words: Antimicrobial activity against Acinetobacter baumannii-Acinetobacter calcoaceticus complex isolated from diabetic patient with calcaneal osteomyelitis by broth microdilution assay. The assay is classed as functional.
For assay [2], the system named is Acinetobacter. In words: Antimicrobial activity against 8 ug/ml colistin-subcultured Acinetobacter baumannii-Acinetobacter calcoaceticus complex isolated from diabetic patient with calcaneal osteomyelitis and bacteremia by broth microdilution assay. The assay is classed as functional.

The term MIC denotes the least concentration at which growth counts as inhibited. With `CC1(C)S[C@@H]2[C@H](NC(=O)[C@H](N)c3ccccc3)C(=O)N2[C@H]1C(=O)O` [AMPICILLIN], the MIC in the assay with Acinetobacter [1] is over 8 µg/mL. In the assay on Acinetobacter [2], the MIC result is “inactive”.

Consider `CC(C)(O/N=C(\C(=O)N[C@@H]1C(=O)N2C(C(=O)[O-])=C(C[n+]3ccccc3)CS[C@H]12)c1csc(N)n1)C(=O)O` [CEFTAZIDIME], for which the MIC in the assay on Acinetobacter [1] is over 64 µg/mL. The MIC result with Acinetobacter [2] was “inactive”.

With `CC[C@H]1OC(=O)[C@H](C)[C@@H](O[C@H]2C[C@@](C)(OC)[C@@H](O)[C@H](C)O2)[C@H](C)[C@@H](O[C@@H]2O[C@H](C)C[C@H](N(C)C)[C@H]2O)[C@](C)(O)C[C@@H](C)CN(C)[C@H](C)[C@@H](O)[C@]1(C)O` [AZITHROMYCIN], in the assay with Acinetobacter [1], the MIC was 8 µg/mL (≈ 10.7 µM). Besides, the MIC entry with Acinetobacter [2] is “inactive”.

Consider `CN(C)c1ccc(O)c2c1C[C@H]1C[C@H]3[C@H](N(C)C)C(O)=C(C(N)=O)C(=O)[C@@]3(O)C(O)=C1C2=O` [MINOCYCLINE], for which the MIC in the assay with Acinetobacter [1] was 1 µg/mL (≈ 2.19 µM). Further, the MIC result in the assay on Acinetobacter [2] is “inactive”.

As for GENTAMICIN, the MIC in the assay with Acinetobacter [1] was over 8 µg/mL. In addition, the MIC result in the assay with Acinetobacter [2] is “inactive”.

On to `CC1(C)S[C@@H]2[C@H](NC(=O)[C@H](C(=O)O)c3ccsc3)C(=O)N2[C@H]1C(=O)O` [TICARCILLIN], for which the minimal inhibitory concentration (MIC) in the assay on Acinetobacter [1] was over 256 µg/mL. The MIC result in the assay on Acinetobacter [2] was “inactive”.

Take `NCC[C@H](O)C(=O)N[C@@H]1C[C@H](N)[C@@H](O[C@H]2O[C@H](CN)[C@@H](O)[C@H](O)[C@H]2O)[C@H](O)[C@H]1O[C@H]1O[C@H](CO)[C@@H](O)[C@H](N)[C@H]1O` [AMIKACIN]: the MIC in the assay on Acinetobacter [1] was 8 µg/mL (≈ 13.7 µM). For the same compound, in the assay on Acinetobacter [2], the MIC result was “inactive”.

Take `C[C@@H](O)[C@H]1C(=O)N2C(C(=O)O)=C(SCCNC=N)C[C@H]12` [IMIPENEM ANHYDROUS]: the MIC with Acinetobacter [1] is 16 µg/mL (≈ 53.4 µM). The MIC result with Acinetobacter [2] is “inactive”.

For the compound `C[C@H]1c2cccc(O)c2C(=O)C2=C(O)[C@]3(O)C(=O)C(C(N)=O)=C(O)[C@@H](N(C)C)[C@@H]3[C@@H](O)[C@@H]21.O` [DOXYCYCLINE], the results for the MIC in the assay on Acinetobacter [1] and in the assay with Acinetobacter [2] were 8 µg/mL and 1 µg/mL, respectively.

In the case of COLISTIN, the results for the MIC with Acinetobacter [1] and with Acinetobacter [2] were 1 µg/mL and over 16 µg/mL, respectively.

As for `O=C(O)[C@H]1/C(=C/CO)O[C@@H]2CC(=O)N21` [CLAVULANIC ACID], in the assay on Acinetobacter [1], the MIC is over 2 µg/mL. The MIC entry with Acinetobacter [2] was “inactive”.

For the compound `CN(C)c1cc(NC(=O)CNC(C)(C)C)c(O)c2c1C[C@H]1C[C@H]3[C@H](N(C)C)C(O)=C(C(N)=O)C(=O)[C@@]3(O)C(O)=C1C2=O` [TIGECYCLINE], the figures for the MIC in the assay with Acinetobacter [1] and in the assay with Acinetobacter [2] were 2 µg/mL (≈ 3.41 µM) and 0.12 µg/mL, respectively.

For `CC1(C)[C@H](C(=O)O)N2C(=O)C[C@H]2S1(=O)=O` [SULBACTAM], the MIC in the assay on Acinetobacter [1] was over 64 µg/mL. In addition, the MIC entry with Acinetobacter [2] was “inactive”.

On to POLYMYXIN B, for which the results for the MIC in the assay on Acinetobacter [1] and with Acinetobacter [2] were 1 µg/mL and 4 µg/mL, respectively.

The values are drawn from ChEMBL document CHEMBL1151430, “Development of colistin-dependent Acinetobacter baumannii-Acinetobacter calcoaceticus complex” (2007).
